Reference: patent US7807882B2, “Herbicide-resistant sunflower plants, polynucleotides encoding herbicide-resistant acetohydroxyacid synthase large subunit proteins, and methods of use” (priority 2004, dated 2010)

Legend:
Assay in all cases: Field trial, sulfonylurea tolerance (herbicide injury ratings), Balcarce
Assay type in all cases: in vivo, Helianthus annuus
IMISUN-1 sunflower line = details: line IMISUN-1, No injury = 0
Description: (§1) To evaluate the tolerance of MUT28 sunflower plants to sulfonylurea herbicides, HA89 (wild-type), MUT28, IMISUN-1, and SURES-1 sunflower lines were planted outdoors in Balcarce, Argentina during the growing season in an RCBD field trial with two replications to evaluate the tolerance of MUT28 plants to the sulfonylurea herbicide thifensulfuron (TFS) at 1× and 2× rates. The 1× rates for TFS is 4.4 g a.i./ha.

[1] = test system: HA89 (wild-type) sunflower line; details: No injury = 0
Description: as §1

SURES-1 sunflower line = details: line SURES-1, No injury = 0
Description: as §1

MUT28 sunflower line = details: No injury = 0
Description: as §1

COc1nc(C)nc(NC(=O)NS(=O)(=O)c2ccsc2C(=O)O)n1 [thifensulfuron]
Herbicide Injury Ratings (IMISUN-1 sunflower line; rate 1× (4.4 g a.i./ha)): 20 | Herbicide Injury Ratings (IMISUN-1 sunflower line; rate 2× (1× is 4.4 g a.i./ha)): 75 | Herbicide Injury Ratings ([1]; rate 1× (4.4 g a.i./ha)): 75 | Herbicide Injury Ratings ([1]; rate 2× (1× is 4.4 g a.i./ha)): 75 | Herbicide Injury Ratings (SURES-1 sunflower line; rate 1× (4.4 g a.i./ha)): 5 | Herbicide Injury Ratings (SURES-1 sunflower line; rate 2× (1× is 4.4 g a.i./ha)): 3 | Herbicide Injury Ratings (MUT28 sunflower line; rate 1× (4.4 g a.i./ha)): 30 | Herbicide Injury Ratings (MUT28 sunflower line; rate 2× (1× is 4.4 g a.i./ha)): 42
